Measured values as given in publication PMC12516379, “Rotamer-Controlled Self-Immolative Linkers Enable Tunable Release of Neurosteroid Oxime Prodrugs” (ACS Medicinal Chemistry Letters, 2025).

Columns and labels:
[1] = Stability in acetate buffer pH 5.0 at room temperature via HPLC (UV); assay type: physicochemical
Protocol: (§1) Stability studies were conducted in PBS and acetate buffer utilizing high performance liquid chromatography for potential drug storage considerations. […]
(§2) All experiments were performed in duplicate and results are presented as the average of two experimental replicates.
(§3) 1.1 Aqueous Stability in PBS and Acetate Buffer via HPLC
(§4) Material and Instrumentation
(§5) HPLC grade acetonitrile (MeCN) […] HPLC grade water (H 2O), and formic acid (FA) were purchased from Fisher Scientific.
(§6) Puradisc 4 mm PTFE (0.45 μm) syringe filters from Cytiva. Gibco ® Dulbecco’s phosphate-buffered saline (DPBS 1X, no calcium, no magnesium, pH = 7.03) and acetate buffer (pH = 5.0, 10 mM) were purchased directly from Thermo Fisher Scientific and Cytiva, respectively.
(§7) Aqueous stability experiments were performed on an Agilent 1100 HPLC equipped with an Agilent G1315B diode array detector, an Agilent G1316A heated column compartment, and a Zorbax Eclipse XDB-C18 (4.6 x 150 mm, 5 μm) column.
(§8) Procedure for Aqueous Stability Experiments
(§9) Each sample was first weighed out in two separate 2.0 mL vials using an analytical balance.
(§10) Unless otherwise specified, the test compounds were then dissolved in the aqueous media (PBS or acetate buffer) at a standard concentration of 1 mg/mL. All mixtures were subsequently sonicated for approximately 30 sec. […]
(§11) min), precipitates observed in sample solutions were filtered with a PTFE syringe filter prior to analysis. Immediately after sample preparation, injection by the HPLC autosampler was performed, which was recorded as the initial time point (t = 0 min). Solutions were then kept in the autosampler at RT and reinjected at designated intervals without additional filtration or sample modification. Remaining prodrug was defined by the area under the curve (AUC) at 254 nm. Aqueous stability was ascertained by calculating the percentage of the parent compound remaining after each time point. Linear regression of the time (x-axis) vs. ln(%remaining) (y-axis) plot afforded the rate constant k (slope = -k). Pseudo first-order half-lives were then calculated by the following equation: t1/2 = 0.693/k.

[2] = Stability in PBS at room temperature via HPLC (UV); assay type: physicochemical; conditions: phosphate-buffered saline (DPBS)
Protocol: as §1, §2, §3, §4, §5, §6, §7, §8, §9, §10, §11

[3] = PBS stability assay at 37 °C via LC-MS/MS; assay type: physicochemical; conditions: for half-life at 3 µM / remaining at 2 h, 3 µM: phosphate-buffered saline (DPBS); for half-life at 3 µM: pH 7.03, PBS; for PBS, 37 °C %rem. at 2h (Table S23) / half-life at 3 µM / remaining at 2 h, 3 µM: 37 °C; for remaining at 2 h, 3 µM: pH 7.03, read-out: % Remaining @ 2h, PBS, 37 °C (Tables S25, S26); for PBS, 37 °C %rem. at 2h (Table S23) / remaining at 2 h, 3 µM / Prodrug stability / self-immolation in buffer, in words: PBS
Protocol: (§12) To address this, prodrug stability was further evaluated in human plasma at 37 °C using liquid chromatography–tandem mass spectrometry (LC-MS/MS). For direct comparison, a parallel screen was conducted in PBS under identical conditions (Table ). To prevent premature degradation prior to LC-MS/MS analysis, acetonitrile containing formic acid was used as a quenching solution to acidify and stabilize the prodrugs in vials. […] This limitation in detection, along with the need for a more uniform and broadly applicable assessment across all compounds, prompted us to monitor the formation of the parent oxime as an alternative readout.
(§13) Stability experiments in human plasma and PBS were performed via liquid chromatography-tandem mass spectrometry (LC-MS/MS) to determine and compare rate of cleavage of progesterone prodrugs as well as selected allopregnanolone prodrugs (3 µM) when incubated at 37 °C. All experiments were performed in duplicate and results are presented as the average of two experimental replicates.

[4] = Plasma stability assay at 37 °C via LC-MS/MS, human plasma; assay type: in vitro ADME; conditions: for half-life at 3 µM: human, plasma;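 as to all read-outs here: prodrugs at 3 µM incubated in human plasma at 37 °C, intact prodrug quantified by LC-MS/MS over time, values are means of duplicate runs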
Protocol: as §12, §13

[5] = Aqueous solubility by visual inspection in acetate buffer (pH 5); conditions: for solubility: sodium acetate buffer, pH 5, aqueous buffer, thermodynamic from solid; for Stability in aqueous media during solubility assessment, in words: aqueous media (acetate buffer)
Protocol: For the solubility assessment, acetate buffer (pH 5) was selected as the media of choice to ensure prodrug stability during analysis.
High aqueous solubility was determined by visual inspection of 5 mg solid material in 0.5 mL
sodium acetate buffer solution. This media was selected to ensure stability of prodrugs during
dissolution in 50 mg/mL aqueous media.

[6] = pH 5, acetate buffer pH 5.0, RT, 1 mg/mL, HPLC 254 nm, read-out: t1/2 in acetate buffer at RT (Tables S5-S8) (converted)
[7] = pH 5, acetate buffer pH 5.0, rt, HPLC (UV), read-out: Half-life (t½) pH 5.0 rt (converted)
[8] = pH 5, acetate buffer pH 5.0, rt, read-out: t½: pH 5.0, rt (Table S23) (converted)
[9] = pH 7.03, DPBS pH 7.03, RT, 1 mg/mL, HPLC 254 nm, read-out: t1/2 in PBS buffer at RT (Tables S1-S4) (converted)
[10] = pH 7.03, PBS, rt, HPLC (UV), read-out: Half-life (t½) PBS rt (converted)
[11] = pH 7.03, PBS, rt, read-out: t½: PBS, rt (Table S23) (converted)
[12] = 3 µM, LC-MS/MS, read-out: t1/2 in PBS at 37 °C (Tables S14-S17) (converted)
[13] = LC-MS/MS, read-out: Half-life (t½) PBS 37°C (converted)
[14] = read-out: PBS, 37 °C t½ (Table S23) (converted)
[15] = read-out: t1/2 (h) PBS, 37 °C (Tables S25, S26) (converted)
[16] = 3 µM, LC-MS/MS, read-out: t1/2 in human plasma at 37 °C (Tables S10-S13, S18) (converted)
[17] = LC-MS/MS, read-out: Half-life (t½) Plasma 37°C (converted)
[18] = read-out: Plasma, 37 °C t½ (Table S23) (converted)
[19] = unit not given (h in Table S23), read-out: t1/2 of allopregnanolone prodrugs in PBS at 37 °C (Table S22) (converted)
[20] = unit not given (h in Table S23), read-out: t1/2 of allopregnanolone prodrugs in human plasma at 37 °C (Table S21) (converted)

SMILES | half-life at 1 mg/mL [1, 6] | half-life at 1 mg/mL [1, 8] | half-life at 1 mg/mL [2, 9] | half-life at 1 mg/mL [2, 11] | PBS, 37 °C %rem. at 2h (Table S23) [3] | half-life at 3 µM [3, 12] | half-life at 3 µM [3, 13] | half-life at 3 µM [3, 14] | Plasma, 37 °C %rem. at 2h (Table S23) [4] | half-life at 3 µM [4, 17] | half-life at 3 µM [4, 18] | solubility [5] | half-life at 3 µM [3, 19] | half-life at 3 µM [4, 20] | also measured
CNCCN(C(=O)O/N=C(\C)[C@H]1CC[C@H]2[C@@H]3CCC4=CC(=O)CC[C@]4(C)[C@H]3CC[C@]12C)C(C)C.O=C(O)C(F)(F)F [20c] | > 7 days | > 7 days | 1180 ± 22.8 min | 1180 min | 53% | 3.27 h | 3.27 h | 3.27 h | 47% | 95.4 min | 95.4 min | > 10000 µg/mL | – | – | half-life at 1 mg/mL [1, 7]: > 7 days; half-life at 1 mg/mL [2, 10]: 1180 min; half-life at 3 µM [3, 15]: 3.27 h; remaining at 2 h, 3 µM [3]: 53%; half-life at 3 µM [4, 16]: 95.4 min
CNCCN(C(=O)O/N=C(\C)[C@H]1CC[C@H]2[C@@H]3CCC4=CC(=O)CC[C@]4(C)[C@H]3CC[C@]12C)C1CCC1.O=C(O)C(F)(F)F [20d] | > 7 days | > 7 days | 707 ± 30.6 min | 707 min | 44% | 2.32 h | 2.32 h | 2.32 h | 59% | 160 min | 160 min | > 10000 µg/mL | – | – | half-life at 1 mg/mL [1, 7]: > 7 days; half-life at 1 mg/mL [2, 10]: 707 min; half-life at 3 µM [3, 15]: 2.32 h; remaining at 2 h, 3 µM [3]: 44%; half-life at 3 µM [4, 16]: 160 min
CNCCN(C(=O)O/N=C(\C)[C@H]1CC[C@H]2[C@@H]3CCC4=CC(=O)CC[C@]4(C)[C@H]3CC[C@]12C)C1CCCC1.O=C(O)C(F)(F)F [20e] | > 7 days | > 7 days | 642 ± 9 min | 642 min | 34% | 1.74 h | 1.74 h | 1.74 h | 76% | 185 min | 241 min | > 10000 µg/mL | – | – | half-life at 1 mg/mL [1, 7]: > 7 days; half-life at 1 mg/mL [2, 10]: 642 min; half-life at 3 µM [3, 15]: 1.74 h; remaining at 2 h, 3 µM [3]: 34%; half-life at 3 µM [4, 16]: 241 min
CNCCN(CCN1CCOCC1)C(=O)O/N=C(\C)[C@H]1CC[C@H]2[C@@H]3CCC4=CC(=O)CC[C@]4(C)[C@H]3CC[C@]12C.O=C(O)C(F)(F)F [20j] | 4.14 days | 4.14 days | 1306 ± 11.4 min | 1310 min | – | – | – | – | – | – | – | > 10000 µg/mL | – | – | half-life at 1 mg/mL [1, 7]: 4.14 days; half-life at 1 mg/mL [2, 10]: 1310 min
C/C(=N\OC(=O)N(C)[C@H](C)[C@@H]1CCCN1)[C@H]1CC[C@H]2[C@@H]3CCC4=CC(=O)CC[C@]4(C)[C@H]3CC[C@]12C.O=C(O)C(F)(F)F [20p] | – | – | – | – | – | 0.61 h | – | – | – | – | – | – | – | – | Prodrug stability / self-immolation in buffer, in words [3]: unstable compound; t1/2 in human plasma at 37 °C (Tables S10-S13, S18) ([4]; 3 µM, LC-MS/MS): unstable during; Stability in aqueous media during solubility assessment, in words [5]: poor stability
CNC1(CN(C)C(=O)O/N=C(\C)[C@H]2CC[C@H]3[C@@H]4CCC5=CC(=O)CC[C@]5(C)[C@H]4CC[C@]23C)CC1 [20s] | – | – | – | – | 93% | 18.5 h | – | 18.5 h | stable | – | > 1440 min | > 10000 µg/mL | – | – | Prodrug stability / self-immolation in buffer, in words [3]: complete inhibition of cyclization; Half-life (t½) Plasma 37°C ([4]; LC-MS/MS): stable; half-life at 3 µM [4, 16]: > 1440 min
C/C(=N\OC(=O)N(CCN)CCN)[C@H]1CC[C@H]2[C@@H]3CCC4=CC(=O)CC[C@]4(C)[C@H]3CC[C@]12C [20w] | > 7 days | > 7 days | 608 ± 24.6 min | 608 min | – | – | – | – | – | – | – | > 10000 µg/mL | – | – | –
CNCCN(CCNC)C(=O)O/N=C(\C)[C@H]1CC[C@H]2[C@@H]3CCC4=CC(=O)CC[C@]4(C)[C@H]3CC[C@]12C.Cl.Cl [20x] | 3.01 days | > 7 days | 90.6 ± 3 min | 90.6 min | – | – | – | – | – | – | – | – | – | – | Stability in aqueous media during solubility assessment, in words [5]: poor stability
CNCCN(C)C(=O)O/N=C(\C)[C@H]1CC[C@H]2[C@@H]3CCC4C[C@H](O)CC[C@]4(C)[C@H]3CC[C@]12C.O=C(O)C(F)(F)F (stereo partly shown) [21a] | – | – | – | – | 88% | – | 9.51 h | 12.2 h | 13% | 76.2 min | 35.4 min | > 5000 µg/mL | 12.2 h | 35.4 min | –
CNCCN(C(=O)O/N=C(\C)[C@H]1CC[C@H]2[C@@H]3CCC4C[C@H](O)CC[C@]4(C)[C@H]3CC[C@]12C)C1CC1.O=C(O)C(F)(F)F (stereo partly shown) [21b] | – | – | – | – | 73% | – | 4.08 h | 4.08 h | 16% | 43.8 min | 43.8 min | > 5000 µg/mL | 4.08 h | 43.8 min | –
CNCCN(C(=O)O/N=C(\C)[C@H]1CC[C@H]2[C@@H]3CCC4C[C@H](O)CC[C@]4(C)[C@H]3CC[C@]12C)C(C)C.O=C(O)C(F)(F)F (stereo partly shown) [21c] | – | – | – | – | 68% | – | 3.78 h | 3.78 h | 16% | 30.6 min | 45.6 min | > 5000 µg/mL | 3.78 h | 30.6 min | –
CNCCN(C(=O)O/N=C(\C)[C@H]1CC[C@H]2[C@@H]3CCC4C[C@H](O)CC[C@]4(C)[C@H]3CC[C@]12C)C1CCC1.O=C(O)C(F)(F)F (stereo partly shown) [21d] | – | – | – | – | 38% | – | 1.69 h | 1.69 h | 16% | 45.6 min | 45.6 min | > 5000 µg/mL | 1.69 h | 45.6 min | –
CNCCN(CCn1ccnc1)C(=O)O/N=C(\C)[C@H]1CC[C@H]2[C@@H]3CCC4C[C@H](O)CC[C@]4(C)[C@H]3CC[C@]12C (stereo partly shown) [21k] | – | – | – | – | 62% | – | – | 4.12 h | 14% | – | 48.6 min | > 5000 µg/mL | 4.12 h | 48.6 min | –
C/C(=N\OC(=O)N(C)C[C@@H]1CCCN1)[C@H]1CC[C@H]2[C@@H]3CCC4C[C@H](O)CC[C@]4(C)[C@H]3CC[C@]12C (stereo partly shown) [21l] | – | – | – | – | 16% | – | 0.94 h | 0.94 h | 2% | 21.6 min | 21.6 min | > 5000 µg/mL | 0.94 h | 21.6 min | –
